# Experimental data reported in US7772245B2, “Inhibitors of histone deacetylase” (Miikana Therapeutics, Inc., priority 2005, dated 2010).
# Columns and labels:
# [1] = tested on: HDAC; test: In vitro fluorescent histone deacetylase assay (Biomol HDAC fluorescent activity kit, HeLa cell nuclear extract); assay type: biochemical; conditions: 100 μM compound; HeLa cell nuclear extract as source of HDAC activity; 50 μM substrate, 10 min at room temperature
# How it was run: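 HeLa nuclear extract as HDAC source with fluorogenic substrate at 50 μM final, reacting 10 min at room temperature before stop. Compounds serially diluted in assay buffer, final DMSO ≤2%; fluorescence read at ex 355 nm / em 460 nm.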
# [2] = tested on: HCT116 cells; test: Whole cell cytotoxicity assay: Sulforhodamine B; assay type: cell-based; conditions: Homo sapiens, HCT-116; 100 μM compound; 48 hours incubation with drug; Sulforhodamine B staining; read-out: % Inhibition of HCT116 cell growth @ 100 μM
SMILES,% Inhibition of HDAC @ 100 μM [1],inhibition at 100 µM [2]
"Cc1ccc2c(c1)C1CCN(c3ncc(C(=O)NO)cn3)CC1N2 (stereo not drawn) [Example 67, N-hydroxy-2-(6-methyl-1,3,4,4a,9,9a-hexahydro-2H-b-carbolin-2-yl)pyrimidine-5-carboxamide]",99.9%,98.2%
"Cc1ccc2[nH]c3c(c2c1)CCN(c1ncc(C(=O)NO)cn1)C3 [Example 68, N-hydroxy-2-(6-methyl-1,3,4,9-tetrahydro-2H-b-carbolin-2-yl)pyrimidine-5-carboxamide]",99.9%,98.9%
"O=C(NO)c1cnc(N2CCc3c([nH]c4ccc(-c5cccc(CN6CCOCC6)c5)cc34)C2)nc1 [Example 70, N-hydroxy-2-{6-[3-(morpholin-4-ylmethyl)phenyl]-1,3,4,9-tetrahydro-2H-b-carbolin-2-yl}pyrimidine-5-carboxamide]",99.9%,97.9%
"CN1CCN(Cc2cccc(-c3ccc4[nH]c5c(c4c3)CCN(c3ncc(C(=O)NO)cn3)C5)c2)CC1 [Example 71, N-hydroxy-2-{6-[3-((4-methylpiperazin-1-yl)methyl)phenyl]-1,3,4,9-tetrahydro-2H-b-carbolin-2-yl}pyrimidine-5-carboxamide]",99.9%,98.6%
"CN1CCN(Cc2ccc(-c3ccc4[nH]c5c(c4c3)CCN(c3ncc(C(=O)NO)cn3)C5)cc2)CC1 [Example 72, N-hydroxy-2-{6-[4-((4-methylpiperazin-1-yl)methyl)phenyl]-1,3,4,9-tetrahydro-2H-b-carbolin-2-yl}pyrimidine-5-carboxamide]",99.8%,95.6%
"CN1CCN(Cc2ccccc2-c2ccc3[nH]c4c(c3c2)CCN(c2ncc(C(=O)NO)cn2)C4)CC1 [Example 73, N-hydroxy-2-{6-[2-((4-methylpiperazin-1-yl)methyl)phenyl]-1,3,4,9-tetrahydro-2H-b-carbolin-2-yl}pyrimidine-5-carboxamide]",99.6%,99.4%
"CC(=O)n1c2c(c3cc(C)ccc31)CN(c1ncc(C(=O)NO)cn1)CC2 [Example 74, N-hydroxy-2-{5-acetyl-8-methyl-1,3,4,5-tetrahydro-2H-pyrido[4,3-b]indol-2-yl}pyrimidine-5-carboxamide]",99.1%,93.6%
"Cc1ccc2c(c1)C1CN(c3ncc(C(=O)NO)cn3)CCC1N2 (stereo not drawn) [Example 75, N-hydroxy-2-(8-methyl-1,3,4,4a,5,9b-hexahydro-2H-pyrido[4,3-b]indol-2-yl)pyrimidine-5-carboxamide]",99.9%,98.4%
"Nc1ccc2[nH]c3c(c2c1)CN(c1ncc(C(=O)NO)cn1)CC3 [Example 76, N-hydroxy-2-(8-amino-1,3,4,5-tetrahydro-2H-pyrido[4,3-b]indol-2-yl)pyrimidine-5-carboxamide]",100%,98.9%
"CS(=O)(=O)Nc1ccc2[nH]c3c(c2c1)CN(c1ncc(C(=O)NO)cn1)CC3 [Example 78, N-hydroxy-2-(8-(N-methylsulfonamido)-1,3,4,5-tetrahydro-2H-pyrido[4,3-b]indol-2-yl)pyrimidine-5-carboxamide]",99.9%,85.1%
"C[S+]([O-])c1cccc(-c2ccc3[nH]c4c(c3c2)CN(c2ncc(C(=O)NO)cn2)CC4)c1 (stereo not drawn) [Example 79, N-hydroxy-2-{8-[3-(methylsulfinyl)phenyl]-1,3,4,5-tetrahydro-2H-pyrido[4,3-b]indol-2-yl}pyrimidine-5-carboxamide]",100%,95.7%
"CC(=O)NCc1cccc(-c2ccc3[nH]c4c(c3c2)CN(c2ncc(C(=O)NO)cn2)CC4)c1 [Example 82, N-hydroxy-2-{8-[3-(N-acetamidomethyl)phenyl]-1,3,4,5-tetrahydro-2H-pyrido[4,3-b]indol-2-yl}pyrimidine-5-carboxamide]",99.9%,97%
"CS(=O)(=O)NCc1cccc(-c2ccc3[nH]c4c(c3c2)CN(c2ncc(C(=O)NO)cn2)CC4)c1 [Example 83, N-hydroxy-2-{8-[3-(N-methylsulfonamidomethyl)phenyl]-1,3,4,5-tetrahydro-2H-pyrido[4,3-b]indol-2-yl}pyrimidine-5-carboxamide]",99.9%,94.7%
"O=C(NO)c1cnc(N2CCc3[nH]c4ccc(-c5cccc(-c6nnn[nH]6)c5)cc4c3C2)nc1 [Example 84, N-hydroxy-2-{8-[3-(1H-tetrazol-5-yl)phenyl]-1,3,4,5-tetrahydro-2H-pyrido[4,3-b]indol-2-yl}pyrimidine-5-carboxamide]",99.9%,93.2%
"Nc1cccc(-c2ccc3[nH]c4c(c3c2)CN(c2ncc(C(=O)NO)cn2)CC4)c1 [Example 86, N-hydroxy-2-{8-[3-aminophenyl]-1,3,4,5-tetrahydro-2H-pyrido[4,3-b]indol-2-yl}pyrimidine-5-carboxamide]",100%,99.1%
"CC(=O)Nc1cccc(-c2ccc3[nH]c4c(c3c2)CN(c2ncc(C(=O)NO)cn2)CC4)c1 [Example 87, N-hydroxy-2-{8-[3-(N-acetamido)phenyl]-1,3,4,5-tetrahydro-2H-pyrido[4,3-b]indol-2-yl}pyrimidine-5-carboxamide]",100%,83.1%
"O=C(NO)c1cnc(N2CCc3[nH]c4ccc(-c5cccc(CN6CCOCC6)c5)cc4c3C2)nc1 [Example 90, N-hydroxy-2-{8-[3-(morpholin-4-ylmethyl)phenyl]-1,3,4,5-tetrahydro-2H-pyrido[4,3-b]indol-2-yl}pyrimidine-5-carboxamide]",99.8%,93.1%
"O=C(NO)c1cnc(N2CCc3[nH]c4ccc(-c5cccc(CN6CCCCC6)c5)cc4c3C2)nc1 [Example 91, N-hydroxy-2-{8-[3-(piperidin-1-ylmethyl)phenyl]-1,3,4,5-tetrahydro-2H-pyrido[4,3-b]indol-2-yl}pyrimidine-5-carboxamide]",100%,98.6%
"O=C(NO)c1cnc(N2CCc3[nH]c4ccc(-c5cccc(CN6CCC(CO)CC6)c5)cc4c3C2)nc1 [Example 93, N-hydroxy-2-{8-[3-((4-hydroxymethylpiperidin-1-yl)methyl)phenyl]-1,3,4,5-tetrahydro-2H-pyrido[4,3-b]indol-2-yl}pyrimidine-5-carboxamide]",100%,98%
"O=C(NO)c1cnc(N2CCc3[nH]c4ccc(-c5cccc(CN6CCSCC6)c5)cc4c3C2)nc1 [Example 94, N-hydroxy-2-{8-[3-(thiomorpholin-4-ylmethyl)phenyl]-1,3,4,5-tetrahydro-2H-pyrido[4,3-b]indol-2-yl}pyrimidine-5-carboxamide]",99.7%,98.5%
"O=C(NO)c1cnc(N2CCc3[nH]c4ccc(-c5cccc(CN(CCO)CCO)c5)cc4c3C2)nc1 [Example 95, N-hydroxy-2-{8-[3-(N,N-di(2-hydroxyethyl)aminomethyl)phenyl]-1,3,4,5-tetrahydro-2H-pyrido[4,3-b]indol-2-yl}pyrimidine-5-carboxamide]",100%,98.2%
"CN1CCN(Cc2cccc(-c3ccc4[nH]c5c(c4c3)CN(c3ncc(C(=O)NO)cn3)CC5)c2)CC1 [Example 96, N-hydroxy-2-{8-[3-((4-methylpiperazin-1-yl)methyl)phenyl]-1,3,4,5-tetrahydro-2H-pyrido[4,3-b]indol-2-yl}pyrimidine-5-carboxamide]",100%,98.7%
"O=C(NO)c1cnc(N2CCc3[nH]c4ccc(-c5cccc(CN6CCCC6)c5)cc4c3C2)nc1 [Example 97, N-hydroxy-2-{8-[3-(pyrrolidin-1-ylmethyl)phenyl]-1,3,4,5-tetrahydro-2H-pyrido[4,3-b]indol-2-yl}pyrimidine-5-carboxamide]",100%,98.1%
"O=C(NO)c1cnc(N2CCc3[nH]c4ccc(-c5cccc(CN6CCNCC6)c5)cc4c3C2)nc1 [Example 99, N-hydroxy-2-{8-[3-(piperazin-1-ylmethyl)phenyl]-1,3,4,5-tetrahydro-2H-pyrido[4,3-b]indol-2-yl}pyrimidine-5-carboxamide]",99.9%,93.8%
"CS(=O)(=O)N1CCN(Cc2cccc(-c3ccc4[nH]c5c(c4c3)CN(c3ncc(C(=O)NO)cn3)CC5)c2)CC1 [Example 100, N-hydroxy-2-{8-[3-((4-(methylsulfonyl)piperazin-1-yl)methyl)phenyl]-1,3,4,5-tetrahydro-2H-pyrido[4,3-b]indol-2-yl}pyrimidine-5-carboxamide]",100%,96.6%
"CC(=O)N1CCN(Cc2cccc(-c3ccc4[nH]c5c(c4c3)CN(c3ncc(C(=O)NO)cn3)CC5)c2)CC1 [Example 101, N-hydroxy-2-{8-[3-((4-acetylpiperazin-1-yl)methyl)phenyl]-1,3,4,5-tetrahydro-2H-pyrido[4,3-b]indol-2-yl}pyrimidine-5-carboxamide]",100%,97.9%
"O=C(NO)c1cnc(N2CCc3[nH]c4ccc(-c5ccc(CN6CCOCC6)cc5)cc4c3C2)nc1 [Example 104, N-hydroxy-2-{8-[4-(morpholin-4-ylmethyl)phenyl]-1,3,4,5-tetrahydro-2H-pyrido[4,3-b]indol-2-yl}pyrimidine-5-carboxamide]",100%,92%
